Reference: patent US12152038B2, “Vasopressin receptor antagonists and products and methods related thereto” (Neumora Therapeutics, Inc., priority 2017, dated 2024)

Molecular target: T1, human Arginine Vasopressin Receptor 1a (AVPR1a) (Homo sapiens, UniProt P37288)
T1 construct: expressed in transfected cells; host or cells: CHO (CHO-AVPR1a, kept under G418 selection)
Assay: Vasopressin V1a receptor antagonist assay (FLIPR calcium, CHO-AVPR1a cells)
Assay type: cell-based
Experimental: The purpose of this assay was to determine the inhibitory effect of synthesized compounds on the Vasopressin V1a receptor. The assay was performed in Chinese Hamster Ovary (CHO) cells expressing the human Arginine Vasopressin Receptor 1a (AVPR1a). Arginine Vasopressin (AVP) evokes an increase in intracellular calcium in CHO-AVPR1a cells which is measured in a fluorescence assay on the FLIPR^TETRA using calcium sensitive dyes. Test compounds were assessed for their ability to affect the magnitude of the response to AVP, with antagonists showing a concentration-dependent reduction in the AVP-mediated fluorescence. Compounds were tested in duplicate in a 10-point, 1:3 dilution series starting at a nominal concentration of 3 μM in the assay.
CHO-AVPR1a cells were maintained in routine culture in T175 Flasks at 37° C., 5% CO2. The growth medium consists of Ham's F12 media supplemented with 10% v/v fetal bovine serum, 1× non-essential amino acids, and 0.4 mg/ml Geneticin G418.
On day one, cells were harvested from T175 flasks when they are 80-90% confluent by first washing the cell monolayer with PBS and then dissociated using trypsin 0.05%/EDTA (3 mL for a T175 Flask). The flasks were incubated at room temperature until the cells detached. To the cell suspension, 10 ml of growth media was added and the cell density determined using the Vi-Cell automated cell counter. The cells were spun at 1000 rpm for 3 minutes, then the supernatant was carefully removed and discarded. The cell pellet was re-suspended at 6.0e^5 cells/ml in growth media. 25 μL of cells in growth media was dispensed into each well (15,000 cells per well) of a poly-D-lysine coated black, clear bottomed, 384-well plate. The plates were incubated at 37° C., 5% CO2 overnight.
At the start of each assay day, the potency of AVP was assessed and an EC80 concentration determined for subsequent compound profiling. Assays were performed using a two-step addition protocol on the FLIPR^TETRA; first addition of 5 μl of control or test compound at 10× final in assay buffer with 15 min incubation at 37° C., 5% CO2 followed by 10 μl of AVP at 6× final concentration in assay buffer. Changes in fluorescence were monitored for 3 min after both additions on the FLIPR^TETRA using 470-495 nm excitation and 515-575 nm emission wavelengths. The assay buffer consisted of HBSS (+Ca/+Mg) supplemented with 20 mM HEPES, and for the preparation of the AVP agonist only, 0.1% w/v bovine serum albumin. The assay was initiated by the removal of growth media from the cells and replacement with 45 μl of Calcium-6 dye (Molecular Devices) prepared at 1× in assay buffer. Cells were loaded with dye for 60-90 min at 37° C., 5% CO2 before initiation of the FLIPR^TETRA protocol. […] For compound profiling, test compounds were first serially diluted in DMSO (10-point curve, 1:3 dilutions) then diluted 33.3-fold in assay buffer prior to addition to the dye loaded cells on the FLIPR^TETRA. At the end of the incubation period, 10 μl of AVP in assay buffer containing 0.1% BSA was added at the previously determined EC80 concentration.
In-plate controls for the assay included balovaptan and PF-184563 concentration-response curves as reference V1a antagonists, and an AVP concentration-response curve to confirm the reproducibility of the EC80 used for the compound challenge.

T1 sequence (P37288 whole entry): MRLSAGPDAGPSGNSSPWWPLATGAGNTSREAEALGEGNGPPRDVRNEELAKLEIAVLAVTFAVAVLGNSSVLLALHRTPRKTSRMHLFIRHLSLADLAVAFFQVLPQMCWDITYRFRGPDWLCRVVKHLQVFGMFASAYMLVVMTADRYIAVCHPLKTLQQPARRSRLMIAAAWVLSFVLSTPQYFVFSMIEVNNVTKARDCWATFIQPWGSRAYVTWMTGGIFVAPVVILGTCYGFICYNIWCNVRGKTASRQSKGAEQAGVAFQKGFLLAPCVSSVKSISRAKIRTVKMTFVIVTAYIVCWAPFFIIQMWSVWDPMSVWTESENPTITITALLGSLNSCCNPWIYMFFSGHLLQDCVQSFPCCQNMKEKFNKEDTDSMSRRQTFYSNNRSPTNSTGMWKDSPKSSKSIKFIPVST

CC1COc2cc(Cl)ccc2N1C(=O)N1CC2(C1)CN(c1cnccn1)C2 (single isomer, unassigned) [1-58-A]
IC50: ≥ 1000 nM

COc1ccnc(N2CC3(CN(C(=O)N4c5ccc(Cl)cc5OCC4C)C3)C2)c1 (single isomer, unassigned) [20-8-A]
IC50: 100 to 500 nM

O=C(N1CC2(C1)CN(c1ccc(F)cn1)C2)N1CCC(O)c2c1ccc(Cl)c2F (centres unmarked) [13-5]
IC50: < 100 nM

CC1COc2cc(Cl)ccc2N1C(=O)N1CC2(C1)CN(c1ncc(F)cn1)C2 (single isomer, unassigned) [18-2-A]
IC50: < 100 nM

Cc1cnnc(N2CC3(CN(C(=O)N4CCOc5cc(Cl)ccc54)C3)C2)c1 [3-1, (7-chloro-2,3-dihydro-4H-benzo[b][1,4]oxazin-4-yl)(6-(5-methylpyridazin-3-yl)-2,6-diazaspiro[3.3]heptan-2-yl)methanone]
IC50: < 100 nM

CC1CN(C(=O)N2CC3(C2)CN(c2ccc(F)cn2)C3)c2ccc(F)cc2O1 (single isomer, unassigned) [9-4-A]
IC50: 100 to 500 nM

O=C(N1CC2(C1)CN(c1ccc(F)cn1)C2)N1CCOc2ccncc21 [8-6]
IC50: ≥ 1000 nM

O=C(N1CC2(C1)CN(c1ccc(C(F)(F)F)cn1)C2)N1CCOc2cc(Cl)ccc21 [1-31]
IC50: 100 to 500 nM

CC1COc2cc(Cl)ccc2N1C(=O)N1CC2(C1)CN(c1ncc(F)cn1)C2 (centres unmarked) [18-2]
IC50: < 100 nM

Cc1cnc(N2CC3(CN(C(=O)N4c5ccc(Cl)cc5OCC4C)C3)C2)cn1 (single isomer, unassigned) [20-5-A]
IC50: < 100 nM

O=C(N1CC2(C1)CN(c1ccncc1)C2)N1CCOc2cc(Cl)ccc21 [1-34]
IC50: ≥ 1000 nM

CC1COc2cc(F)ccc2N1C(=O)N1CC2(C1)CN(c1cc(C#N)ccn1)C2 (single isomer, unassigned) [20-3-A]
IC50: ≥ 1000 nM

CC1COc2cc(F)ccc2N1C(=O)N1CC2(C1)CN(c1ncccc1F)C2 (single isomer, unassigned) [1-67-B]
IC50: ≥ 1000 nM

O=C(N1CC2(C1)CN(c1cncnc1)C2)N1CCOc2cc(Cl)ccc21 [1-17]
IC50: 100 to 500 nM

O=C(N1CC2(C1)CN(c1ccc(OC(F)F)cn1)C2)N1CCOc2cc(Cl)ccc21 [1-12]
IC50: ≥ 1000 nM

Cc1nc(N2CC3(CN(C(=O)N4CCOc5cc(Cl)ccc54)C3)C2)no1 [7-1, (7-chloro-2,3-dihydro-4H-benzo[b][1,4]oxazin-4-yl)(6-(5-methyl-1,2,4-oxadiazol-3-yl)-2,6-diazaspiro[3.3]heptan-2-yl)methanone]
IC50: 100 to 500 nM

CC1COc2cc(Cl)ccc2N1C(=O)N1CC2(C1)CN(c1ncccc1F)C2 (centres unmarked) [1-57]
IC50: < 100 nM

O=C(N1CC2(C1)CN(c1ncccc1F)C2)N1CCC(O)c2cc(Cl)ccc21 (centres unmarked) [13-4]
IC50: < 100 nM

CCC1COc2cc(F)ccc2N1C(=O)N1CC2(C1)CN(c1ccc(F)cn1)C2 (centres unmarked) [1-56]
IC50: < 100 nM

COc1ccc(N2CC3(CN(C(=O)N4CCOc5cc(Cl)ccc54)C3)C2)cn1 [8-1, (7-chloro-2,3-dihydro-4H-benzo[b][1,4]oxazin-4-yl)(6-(6-methoxypyridin-3-yl)-2,6-diazaspiro[3.3]heptan-2-yl)methanone]
IC50: 100 to 500 nM

CC1COc2cc(F)ccc2N1C(=O)N1CC2(C1)CN(c1cccnn1)C2 (centres unmarked) [1-62]
IC50: < 100 nM

CC1COc2cc(F)ccc2N1C(=O)N1CC2(C1)CN(c1cccnn1)C2 (single isomer, unassigned) [1-62-A]
IC50: ≥ 1000 nM

Cc1cnc(N2CC3(CN(C(=O)N4c5ccc(Cl)cc5OCC4C)C3)C2)cn1 (centres unmarked) [20-5]
IC50: < 100 nM

CN1Cc2cnc(N3CC4(CN(C(=O)N5CCOc6cc(Cl)ccc65)C4)C3)nc2C1 [1-28]
IC50: ≥ 1000 nM

CC1COc2cc(Cl)ccc2N1C(=O)N1CC2(C1)CN(c1noc3cccnc13)C2 (single isomer, unassigned) [18-3-A]
IC50: ≥ 1000 nM

O=C(N1CC2(C1)CN(c1ccccn1)C2)N1CCC(O)c2cc(Cl)ccc21 (centres unmarked) [13-2]
IC50: < 100 nM

COc1ccc2c(c1)OCC(C)N2C(=O)N1CC2(C1)CN(c1ccc(F)cn1)C2 (centres unmarked) [1-59]
IC50: < 100 nM

Cc1ccnc(N2CC3(CN(C(=O)N4c5ccc(F)cc5OCC4C)C3)C2)c1 (single isomer, unassigned) [20-4-A]
IC50: ≥ 1000 nM

CC1CN(C(=O)N2CC3(C2)CN(c2ccc(F)cn2)C3)c2ccc(F)cc2O1 (centres unmarked) [9-4]
IC50: < 100 nM

CC1COc2cc(Cl)ccc2N1C(=O)N1CC2(C1)CN(c1nccc(C#N)n1)C2 (single isomer, unassigned) [20-16-A]
IC50: ≥ 1000 nM

COc1cnc(N2CC3(CN(C(=O)N4CCOc5cc(Cl)ccc54)C3)C2)nc1 [1-48]
IC50: 100 to 500 nM

CC1CN(C(=O)N2CC3(C2)CN(c2ccc(F)cn2)C3)c2ccc(Cl)cc2O1 (single isomer, unassigned) [9-3-B]
IC50: < 100 nM

Cc1nccnc1N1CC2(CN(C(=O)N3CCOc4cc(Cl)ccc43)C2)C1 [1-21]
IC50: < 100 nM

O=C(N1CC2(C1)CN(c1ccc(F)cn1)C2)N1CCOc2c1ccc(F)c2F [9-5]
IC50: < 100 nM

Cn1cc(N2CC3(CN(C(=O)N4CCOc5cc(Cl)ccc54)C3)C2)cn1 [1-11]
IC50: ≥ 1000 nM

CC1COc2cc(Cl)ccc2N1C(=O)N1CC2(C1)CN(c1cnccn1)C2 (centres unmarked) [1-58]
IC50: < 100 nM

Cc1cnc(N2CC3(CN(C(=O)N4CCOc5cc(Cl)ccc54)C3)C2)nc1 [1-37]
IC50: 100 to 500 nM

Cc1cc(C)nc(N2CC3(CN(C(=O)N4CCOc5cc(Cl)ccc54)C3)C2)n1 [1-38]
IC50: < 100 nM

CC1COc2cc(Cl)ccc2N1C(=O)N1CC2(C1)CN(c1ccccn1)C2 (single isomer, unassigned) [1-60-A]
IC50: 500 to 1000 nM

CC(c1cccnc1)N1CC2(CN(C(=O)N3CCOc4cc(Cl)ccc43)C2)C1 (centres unmarked) [2-4]
IC50: ≥ 1000 nM

O=C(N1CC2(C1)CN(c1ccc(F)cn1)C2)N1CCOc2ccccc21 [1-63]
IC50: 100 to 500 nM

Cc1ccnc(N2CC3(CN(C(=O)N4c5ccc(Cl)cc5OCC4C)C3)C2)c1 (single isomer, unassigned) [20-11-A]
IC50: 500 to 1000 nM

O=C(N1CC2(C1)CN(c1nccnc1F)C2)N1CCOc2cc(Cl)ccc21 [1-33]
IC50: < 100 nM

O=C(N1CC2(CN(Cc3ccccn3)C2)C1)N1CCOc2cc(Cl)ccc21 [2-2]
IC50: ≥ 1000 nM

O=C(N1CC2(C1)CN(c1ccnc(OC(F)F)c1)C2)N1CCOc2cc(Cl)ccc21 [1-35]
IC50: ≥ 1000 nM

CC1COc2cc(F)c(F)cc2N1C(=O)N1CC2(C1)CN(c1ncccn1)C2 (single isomer, unassigned) [19-1-A]
IC50: ≥ 1000 nM

CC1COc2cc(Cl)ccc2N1C(=O)N1CC2(C1)CN(c1ncccn1)C2 (single isomer, unassigned) [1-83-A]
IC50: 100 to 500 nM

O=C(N1CC2(C1)CN(c1ncc(F)cc1F)C2)N1CCOc2cc(Cl)ccc21 [1-50]
IC50: < 100 nM

CC1COc2cc(F)ccc2N1C(=O)N1CC2(C1)CN(c1cnccn1)C2 (single isomer, unassigned) [1-65-A]
IC50: ≥ 1000 nM

N#Cc1ccc(N2CC3(CN(C(=O)N4CCOc5cc(Cl)ccc54)C3)C2)nc1 [1-16]
IC50: 100 to 500 nM

CC1COc2cc(Cl)c(F)cc2N1C(=O)N1CC2(C1)CN(c1ncccn1)C2 (single isomer, unassigned) [19-2-A]
IC50: 100 to 500 nM

CC1COc2cc(Cl)ccc2N1C(=O)N1CC2(C1)CN(c1ccc(F)cn1)C2 (centres unmarked) [1-73]
IC50: < 100 nM

CC1COc2cc(Cl)ccc2N1C(=O)N1CC2(C1)CN(c1cccnc1)C2 (single isomer, unassigned) [20-1-A]
IC50: ≥ 1000 nM

CC1COc2cc(Cl)ccc2N1C(=O)N1CC2(C1)CN(c1cc(=O)n(C)cn1)C2 (centres unmarked) [20-14]
IC50: 100 to 500 nM

Cc1ccc(N2CC3(CN(C(=O)N4CCOc5cc(Cl)ccc54)C3)C2)nc1F [1-46]
IC50: < 100 nM

Cc1ccnc(N2CC3(CN(C(=O)N4c5ccc(F)cc5OCC4C)C3)C2)c1 (centres unmarked) [20-4]
IC50: < 100 nM

O=C(N1CC2(C1)CN(c1cncc(F)c1)C2)N1CCOc2cc(Cl)ccc21 [1-7]
IC50: 100 to 500 nM

COc1ncccc1N1CC2(CN(C(=O)N3CCOc4cc(Cl)ccc43)C2)C1 [1-8]
IC50: 100 to 500 nM

CCC1COc2cc(Cl)ccc2N1C(=O)N1CC2(C1)CN(c1ccc(F)cn1)C2 (single isomer, unassigned) [1-55-A]
IC50: 500 to 1000 nM
